These results are taken from article PMC3968781 (Journal of the American Chemical Society, 2014).

Type in all cases: biochemical
The target of test [1] is T1, Nitrile hydratase (PtNHase), alpha subunit (Pseudonocardia thermophila, UniProt Q7SID2+Q7SID3).
T1 sequence (Q7SID2 2-204): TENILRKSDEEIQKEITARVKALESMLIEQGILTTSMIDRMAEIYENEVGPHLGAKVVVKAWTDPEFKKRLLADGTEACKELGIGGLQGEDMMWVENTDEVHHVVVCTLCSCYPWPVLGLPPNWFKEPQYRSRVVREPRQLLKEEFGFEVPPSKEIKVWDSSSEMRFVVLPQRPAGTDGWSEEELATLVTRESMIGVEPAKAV
T1 sequence (Q7SID3 1-233): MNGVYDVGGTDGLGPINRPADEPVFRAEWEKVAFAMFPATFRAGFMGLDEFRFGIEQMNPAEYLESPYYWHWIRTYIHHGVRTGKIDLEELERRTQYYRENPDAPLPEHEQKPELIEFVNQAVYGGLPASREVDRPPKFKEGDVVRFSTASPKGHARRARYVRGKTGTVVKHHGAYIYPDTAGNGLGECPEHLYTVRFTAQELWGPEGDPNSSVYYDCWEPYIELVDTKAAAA
Kind of test: spectrophotometric hydration kinetics at […] nm.

Test [2] has as its target T1, Nitrile hydratase (PtNHase), alpha subunit. Kind of test: X-ray co-crystal structure.
Test [3] shares this target. Kind of test: X-ray crystal structures.

A word on the Km: it is the concentration of substrate that gives half-maximal velocity. As for `C=CC#N` [acrylonitrile], the Km in test [1] was found to be 800 ± 100 µM. In general, Ki refers to a measure of affinity in units of concentration, obtained from inhibition or displacement. Higher therefore signals lower affinity. For `OB(O)c1ccccc1` [PBA, phenylboronic acid], the affinity in test [2], expressed as Ki, was 0.04 ± 0.01 nM. On to `CCCCB(O)O` [BuBA, 1-butaneboronic acid], for which, in test [3], affinity was put at a Ki of 500 ± 100 nM.
